Assay [1] relates to AngII-induced cardiac hypertrophy in C57BL/6 mice. Put plainly: Echocardiography and heart weight/bodyweight in AngII-induced cardiac hypertrophy mice. The conditions noted are these: AngII-treated C57BL/6 mice, 20 mg/kg/day for 2 weeks, n = 7. Type of assay: in vivo, mouse. The method, then:
Cardiac hypertrophy was induced in 6‐week‐old C57BL/6 mice by a […] subcutaneous injection of AngII (0.5 mg/kg/2 days for 2 weeks) in phosphate buffer (pH 7.2), as described previously 18. Mice in vehicle control group and Ang II group received 1% CMC‐Na solution alone in the same schedule as compound‐treated groups. Animals were killed under sodium pentobarbital anaesthesia. After mice was killed, heart tissues were embedded in 4% paraformaldehyde for pathological analysis and/or snap‐frozen in liquid nitrogen for gene and protein expression analysis. In addition, the blood was collected from the right ventricle using a heparin‐containing syringe with a needle at the time of death.
At the day before the sacrifice, Doppler analysis was performed to ensure that pathologic cardiac hypertrophy was induced. The internal diameter and wall thickness of left ventricle (LV) were assessed by echocardiography 19. Hearts of the killed mice were dissected and weighted to compare heart weight/bodyweight (mg/kg) ratios in mice. Mice was anaesthetized with isoflurane, echocardiography was performed by SONOS 5500 ultrasound (Philips Electronics, Amsterdam, the Netherlands) with a 15‐MHz linear array ultrasound transducer. The LV was assessed in both parasternal long‐axis and short‐axis views at a frame rate of 120 Hz. End‐systole or end‐diastole was defined as the phase in which the smallest or largest area of LV respectively. LV posterior wall (LVPW) and LV internal dimension (LVID) were measured from LV M‐model tracing with a sweep speed of 50 mm/sec. at the mid‐papillary muscle level.

The test system of assay [2] is EGFR signalling in H9c2 cells. The conditions noted are these: 10 μM pre-treatment 2 hrs, EGF 100 ng/ml 15 min, Western blot. The method, then:
(§1) Cells or heart tissues (30–50 mg) were lysated. […] Each PVDF membrane was incubated with specific antibodies.
(In general: In western blotting, separated proteins are transferred to a membrane and probed.)

Assay [3] deals with EGFR signalling in H9c2 cells. Put plainly: Ang II-induced EGFR/AKT/ERK phosphorylation in H9c2 cells (Western blot). Type of assay: cell-based, rat. Particulars: Ang II 1 μM 15 min. The method, then: as §1
Another assay deals with H9c2 cells. Put plainly: EGF-induced hypertrophy of H9c2 cells (Western blot, RT-qPCR, immunofluorescence). Type of assay: cell-based, rat. The conditions noted are these: pre-treatment 2 hrs (AG1478 10 μM; 542/543 1-10 μM), EGF 100 ng/ml 6 hrs (mRNA) or 12 hrs (MyHC). The method, then: as §1
The subject of assay [4] is heart tissues of Ang II-treated C57BL/6 mice. Description: Heart histopathology, Masson fibrosis staining, RT-qPCR and immunohistochemistry in Ang II-treated mice. Type of assay: in vivo, mouse. The conditions noted are these: Ang II 2 weeks. The method, then:
Cardiac hypertrophy was induced in 6-week-old C57BL/6 mice by a […] subcutaneous injection of AngII (0.5 mg/kg/2 days for 2 weeks) in phosphate buffer (pH 7.2), as described previously 18. Mice in vehicle control group and Ang II group received 1% CMC-Na solution alone in the same schedule as compound-treated groups. Animals were killed under sodium pentobarbital anaesthesia. After mice was killed, heart tissues were embedded in 4% paraformaldehyde for pathological analysis and/or snap-frozen in liquid nitrogen for gene and protein expression analysis. In addition, the blood was collected from the right ventricle using a heparin-containing syringe with a needle at the time of death. […] Hearts were fixed in 4% paraformaldehyde and embedded in paraffin. The paraffin sections (5 μm) were stained with haematoxylin and eosin. To estimate the extent of damage, the specimen was observed under a light microscope (×200 amplification; Nikon, Tokyo, Japan). After deparaffinization and rehydration, 5 μm heart sections were treated with 3% H2O2 for 30 min. and with 1% BSA in PBS for 30 min. Slides were incubated overnight at 4°C with primary antibody (1:50) then incubated with secondary antibody (1:100; Santa Cruz Biotech) for 1 hr and DAB (A: B = 1: 20) for 5 min. at room temperature. At last the cell nuclei were stained with haematoxylin for 5 min., the sections were dehydrated and the images were viewed by a light microscope (×200 amplification; Nikon). Tissues were fixed in paraformaldehyde solution and embedded in paraffin. Paraffin sections (5 μm) of the heart tissues were stained with Masson to evaluate the fibrosis content. The stained sections then were viewed by light microscope (×200 amplification; Nikon).

Assay [5] concerns primary neonatal rat cardiomyocytes. Put plainly: Ang II-stimulated primary neonatal rat cardiomyocytes (Western blot, RT-qPCR). Type of assay: cell-based. Particulars: 10 μM pre-treatment 2h, Ang II 1 μM 15min. The method, then:
Cells were incubated with a DMEM medium that contained 5.5 mmol/L of D-glucose.
Figure S1. Effects of EGFR inhibitos in Ang II-stimulated primary neonatal rat cardiomyocytes. […] The cell lysates were collected and p-EGFR/EGFR (A) and p-AKT/p-ERK/GAPDH (B) were detected by Western Blot analysis. […] The cell lysates were collected and MyHC/GAPDH was detected by Western Blot analysis. […] The mRNA levels of ANP (D), β/α-MyHC (E), and SKA (F) were detected by RT-qPCR assay.

Assay [6] relates to c-Src phosphorylation in H9c2 cells. Description: Ang II-induced c-Src phosphorylation in H9c2 cells (Western blot). Type of assay: cell-based, rat. Particulars: 10 μM pre-treatment 2 hrs, Ang II 1 μM 15 min. The method, then:
as §1

As to `COc1cc2ncnc(Nc3cccc(Cl)c3)c2cc1OC` [AG1478], in assay [1], the HR was found to be 345.83 ± 70.87, the “HW (mg)/BW (g)” value is recorded as 5.68 ± 0.62 mg/g, the “LVIDd (diastole left ventricle internal dimension)” value came to 2.90 ± 0.26 mm and the “LVIDs (systolic left ventricle internal dimension)” value amounted to 1.57 ± 0.21 mm. Moreover, in assay [1], the “LVPW (left ventricle posterior wall)” value turned out to be 0.88 ± 0.03 mm and the VS is reported as 0.95 ± 0.02 mm. Also, in assay [2], the “activation of EGFR and downstream signalling (EGFR, AKT, ERK phosphorylation) induced by EGF” value was “inhibits”. Moreover, in assay [3] (AG1478 10 μM, 542/543 1, 2.5, 5 or 10 μM pre-treatment 2 hrs), the “activation of EGFR and downstream signalling (EGFR, AKT, ERK phosphorylation) induced by Ang II” value is given as “inhibits”. For the same molecule, the “EGF-induced overexpression of pro-hypertrophic genes (MyHC, ANP, BNP, β/α-MyHC, SKA)” value in the assay on H9c2 cells is “significantly inhibited”. The “cardiac EGFR signalling pathway activation (p-EGFR, p-ERK, p-AKT immunohistochemical staining)” value in assay [4] (20 mg/kg) is “significantly inhibited”. Further, the “Ang II-induced increases in heart expression of hypertrophic genes ANP, BNP, β/α-MyHC, SKA (RT-qPCR)” value in assay [4] (AG1478 20 mg/kg/day, 542 at both dosages (5 and 20 mg/kg/day)) is on record as “significantly blocked”. The “Ang II-induced heart structural abnormalities (haematoxylin and eosin staining)” value in assay [4] (daily treatment) is on record as “significantly attenuated”. The “Ang II-increased phosphorylation of EGFR in primary cardiomyocytes” value in assay [5] was “markedly reversed”.
In the case of `CC(C)(C)n1nc(-c2ccc(Cl)cc2)c2c(N)ncnc21` [PP2], the “Ang II-induced phosphorylation of EGFR” value in assay [3] (PP2 10 μM pre-treatment 2 hrs) was “almost totally inhibited”. Besides, in assay [6], the “Ang II-induced phosphorylation of c-Src” value is “almost totally inhibited”.

Source of the values: publication PMC4759478, “Novel EGFR inhibitors attenuate cardiac hypertrophy induced by angiotensin II” (Journal of Cellular and Molecular Medicine, 2016).
